Test results reported in patent US20230322723A1, “COMPOUNDS FOR SUPPRESSING EGFR MUTANT CANCER AND PHARMACEUTICAL USE THEREOF” (J2H BIOTECH INC., priority 2020, published 2023).

Tests used:
[1] = test system: EGFR^del19+T790M+C797S; test: EGFR protein degradation test (Western blot) in Ba/F3 cells expressing mutant EGFR del19+T790M+C797S (DTC); type: cell-based; details: compounds at 0.1 μM and 1 μM, 24 hours, Western blot with EGFR antibody
Description: (§1) The ability of the compounds of the present invention to degrade the mutant EGFR protein was confirmed in Ba/F3 cells expressing normal EGFR, mutant EGFR^del19+T790M+C797S or mutant EGFR^L858R+T790M+C797S. A Western blot test using the EGFR antibody was performed.
(§2) Specifically, Ba/F3 cells expressing EGFR were cultured in RPMI 1640 (Gibco, NY, USA) containing 10% fetal bovine serum (FBS, Gibco, NY, USA). Cells expressing normal EGFR, mutant EGFR^del19+T790M+C797S or mutant EGFR^L858R+T790M+C797S were treated with the compounds of the present invention at concentrations of 0.1 μM and 1 μM, respectively, for 24 hours. After that, it was washed twice with phosphate buffered saline (PBS) and SDS-PAGE was performed with 30 μg of cell lysate. After the protein separated on the gel was transferred to a nitrocellulose membrane, the expression level of the EGFR protein was confirmed using an EGFR antibody (Santa Cruz biotechnology, Santacruz, CA, USA). EGFR bands separated by Western blotting were quantitatively analyzed with Fluo-S MultiImager (Bio-Rad, Hercules, CA, USA).

[2] = molecular target: T1, EGFR^L858R+T790M+C797S (Homo sapiens, UniProt P00533, C797S/L858R/T790M); test: EGFR protein degradation test (Western blot) in Ba/F3 cells expressing mutant EGFR L858R+T790M+C797S (LTC); type: cell-based; details: compounds at 0.1 μM and 1 μM, 24 hours, Western blot with EGFR antibody
T1 construct: expressed in transfected cells; host or cells: Ba/F3
Description: as §1, §2

T1 sequence (P00533 25-1210 T790M/C797S/L858R): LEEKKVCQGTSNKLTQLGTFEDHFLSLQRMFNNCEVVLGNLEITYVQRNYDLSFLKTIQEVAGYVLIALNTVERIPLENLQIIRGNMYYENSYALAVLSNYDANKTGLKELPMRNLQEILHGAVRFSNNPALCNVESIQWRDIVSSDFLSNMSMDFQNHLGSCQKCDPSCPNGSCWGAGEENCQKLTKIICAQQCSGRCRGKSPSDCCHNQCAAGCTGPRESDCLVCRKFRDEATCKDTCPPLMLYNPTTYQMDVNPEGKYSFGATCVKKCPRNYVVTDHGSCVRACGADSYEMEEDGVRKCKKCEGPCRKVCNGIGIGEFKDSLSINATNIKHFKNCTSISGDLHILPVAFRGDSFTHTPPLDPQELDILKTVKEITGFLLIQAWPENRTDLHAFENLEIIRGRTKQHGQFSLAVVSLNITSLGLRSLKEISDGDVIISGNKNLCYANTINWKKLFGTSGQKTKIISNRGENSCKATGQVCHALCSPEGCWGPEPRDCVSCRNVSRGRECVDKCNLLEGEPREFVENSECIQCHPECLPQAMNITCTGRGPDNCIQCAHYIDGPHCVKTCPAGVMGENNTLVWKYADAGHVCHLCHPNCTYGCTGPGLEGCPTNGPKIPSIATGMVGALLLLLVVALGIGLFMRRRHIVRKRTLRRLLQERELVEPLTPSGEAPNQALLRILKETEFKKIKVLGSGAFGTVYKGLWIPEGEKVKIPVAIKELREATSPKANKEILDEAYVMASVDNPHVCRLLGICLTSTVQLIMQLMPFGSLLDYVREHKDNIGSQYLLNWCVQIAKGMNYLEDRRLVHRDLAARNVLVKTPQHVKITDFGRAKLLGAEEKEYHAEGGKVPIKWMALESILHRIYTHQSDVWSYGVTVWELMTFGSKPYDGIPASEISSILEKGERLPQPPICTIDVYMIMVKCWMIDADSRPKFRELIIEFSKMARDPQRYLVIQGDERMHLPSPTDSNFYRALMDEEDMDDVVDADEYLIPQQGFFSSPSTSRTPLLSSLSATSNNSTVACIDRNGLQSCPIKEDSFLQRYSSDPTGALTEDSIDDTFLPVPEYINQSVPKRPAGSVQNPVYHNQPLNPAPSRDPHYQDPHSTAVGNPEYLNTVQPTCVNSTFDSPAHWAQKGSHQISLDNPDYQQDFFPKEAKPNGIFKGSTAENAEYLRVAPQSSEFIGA

Structure (SMILES) | DTC (EGFR^del19+T790M+C797S) protein degradation [1] | LTC (EGFR^L858R+T790M+C797S) protein degradation [2]
COc1cc(N2CCN(CCOC3CN(c4ccc5c(c4)C(=O)N(C4CCC(=O)NC4=O)C5=O)C3)CC2)ccc1Nc1ncc(Cl)c(Nc2ccccc2N(C)S(C)(=O)=O)n1 (stereo not shown) [Compound 33, N-(2-((5-chloro-2-((4-(4-(2-((1-(2-(2,6-dioxopiperidin-3-yl)-1,3-dioxoisoindolin-5-yl)azetidin-3-yl)oxy)ethyl)piperazin-1-yl)-2-methoxyphenyl)amino)pyrimidin-4-yl)amino)phenyl)-N-methylmethanesulfonamide] | + (Protein degradation 20~80%) | − (Protein degradation < 20%)
COc1cc(N2CCN(CCOC3CCN(c4ccc5c(c4)C(=O)N(C4CCC(=O)NC4=O)C5=O)CC3)CC2)ccc1Nc1ncc(Cl)c(Nc2ccccc2N(C)S(C)(=O)=O)n1 (stereo not shown) [Compound 34, N-(2-((5-chloro-2-((4-(4-(2-((1-(2-(2,6-dioxopiperidin-3-yl)-1,3-dioxoisoindolin-5-yl)piperidin-4-yl)oxy)ethyl)piperazin-1-yl)-2-methoxyphenyl)amino)pyrimidin-4-yl)amino)phenyl)-N-methylmethanesulfonamide] | − (Protein degradation < 20%) | − (Protein degradation < 20%)
COc1cc(N2CCC(CN3CC(C(=O)N[C@H](C(=O)N4C[C@H](O)C[C@H]4C(=O)NCc4ccc(-c5scnc5C)cc4)C(C)(C)C)C3)CC2)ccc1Nc1ncc(Cl)c(Nc2ccccc2N(C)S(C)(=O)=O)n1 [Compound 38, (2S,4R)-1-((S)-2-(1-((1-(4-((5-chloro-4-((2-(N-methylmethylsulfonamido)phenyl)amino)pyrimidin-2-yl)amino)-3-methoxyphenyl)piperidin-4-yl)methyl)azetidin-3-carboxamido)-3,3-dimethylbutanoyl)-4-hydroxy-N-(4-(4-methylthiazol-5-yl)benzyl)pyrrolidin-2-carboxamide] | − (Protein degradation < 20%) | − (Protein degradation < 20%)
CN(c1ccccc1Nc1nc(Nc2ccc(N3CCN(CCN4CC(Oc5cccc6c5CN(C5CCC(=O)NC5=O)C6=O)C4)CC3)c(F)c2)ncc1Cl)S(C)(=O)=O (stereo not shown) [Compound 39, N-(2-((5-chloro-2-((4-(4-(2-(3-((2-(2,6-dioxopiperidin-3-yl)-1-oxoisoindolin-4-yl)oxy)azetidin-1-yl)ethyl)piperazin-1-yl)-3-fluorophenyl)amino)pyrimidin-4-yl)amino)phenyl)-N-methylmethanesulfonamide] | + (Protein degradation 20~80%) | + (Protein degradation 20~80%)
CN(c1ccccc1Nc1nc(Nc2ccc(N3CCN(CCOC4CN(c5ccc6c(c5)C(=O)N(C5CCC(=O)NC5=O)C6=O)C4)CC3)c(F)c2)ncc1Cl)S(C)(=O)=O (stereo not shown) [Compound 40, N-(2-((5-chloro-2-((4-(4-(2-((1-(2-(2,6-dioxopiperidin-3-yl)-1,3-dioxoisoindolin-5-yl)azetidin-3-yl)oxy)ethyl)piperazin-1-yl)-3-fluorophenyl)amino)pyrimidin-4-yl)amino)phenyl)-N-methylmethanesulfonamide] | + (Protein degradation 20~80%) | + (Protein degradation 20~80%)
COc1cc(N2CCN(CC3CCN(Cc4ccc5c(c4)C(=O)N(C4CCC(=O)NC4=O)C5=O)CC3)CC2)ccc1Nc1ncc(Cl)c(Nc2ccccc2N(C)S(C)(=O)=O)n1 (stereo not shown) [Compound 41, N-(2-((5-chloro-2-((4-(4-((1-((2-(2,6-dioxopiperidin-3-yl)-1,3-dioxoisoindolin-5-yl)methyl)piperidin-4-yl)methyl)piperazin-1-yl)-2-methoxyphenyl)amino)pyrimidin-4-yl)amino)phenyl)-N-methylmethanesulfonamide] | − (Protein degradation < 20%) | − (Protein degradation < 20%)
CN(c1ccccc1Nc1nc(Nc2ccc(N3CCC(N4CCN(Cc5ccc6c(c5)C(=O)N(C5CCC(=O)NC5=O)C6=O)CC4)CC3)c(F)c2)ncc1Cl)S(C)(=O)=O (stereo not shown) [Compound 42, N-(2-((5-chloro-2-((4-(4-(4-((2-(2,6-dioxopiperidin-3-yl)-1,3-dioxoisoindolin-5-yl)methyl)piperazin-1-yl)piperidin-1-yl)-3-fluorophenyl)amino)pyrimidin-4-yl)amino)phenyl)-N-methylmethanesulfonamide] | + (Protein degradation 20~80%) | − (Protein degradation < 20%)
COc1cc(N2CCC(N3CCN(C[C@@H]4CCCN4c4ccc5c(c4)C(=O)N(C4CCC(=O)NC4=O)C5=O)CC3)CC2)ccc1Nc1ncc(Cl)c(Nc2ccccc2N(C)S(C)(=O)=O)n1 (stereo partly drawn) [Compound 44, N-(2-((5-chloro-2-((4-(4-(4-(((2S)-1-(2-(2,6-dioxopiperidin-3-yl)-1,3-dioxoisoindolin-5-yl)pyrrolidin-2-yl)methyl)piperazin-1-yl)piperidin-1-yl)-2-methoxyphenyl)amino)pyrimidin-4-yl)amino)phenyl)-N-methylmethanesulfonamide] | − (Protein degradation < 20%) | + (Protein degradation 20~80%)
CN(c1ccccc1Nc1nc(Nc2ccc(N3CCN(CC4CCN(CCOc5cccc6c5C(=O)N(C5CCC(=O)NC5=O)C6=O)CC4)CC3)c(F)c2)ncc1Cl)S(C)(=O)=O (stereo not shown) [Compound 46, N-(2-((5-chloro-2-((4-(4-((1-(2-((2-(2,6-dioxopiperidin-3-yl)-1,3-dioxoisoindolin-4-yl)oxy)ethyl)piperidin-4-yl)methyl)piperazin-1-yl)-3-fluorophenyl)amino)pyrimidin-4-yl)amino)phenyl)-N-methylmethanesulfonamide] | + (Protein degradation 20~80%) | + (Protein degradation 20~80%)
COc1cc(N2CCC(CN3CCC(C(=O)Nc4cccc5c4CN(C4CCC(=O)NC4=O)C5=O)CC3)CC2)ccc1Nc1ncc(Cl)c(Nc2ccccc2N(C)S(C)(=O)=O)n1 (stereo not shown) [Compound 49, 1-((1-(4-((5-chloro-4-((2-(N-methylmethylsulfonamido)phenyl)amino)pyrimidin-2-yl)amino)-3-methoxyphenyl)piperidin-4-yl)methyl)-N-(2-(2,6-dioxopiperidin-3-yl)-1-oxoisoindolin-4-yl)piperidin-4-carboxamide] | − (Protein degradation < 20%) | − (Protein degradation < 20%)
COc1cc(N2CCC3(CCN(CC(=O)Nc4cccc5c4CN(C4CCC(=O)NC4=O)C5=O)CC3)CC2)ccc1Nc1ncc(Cl)c(Nc2ccccc2N(C)S(C)(=O)=O)n1 (stereo not shown) [Compound 50, 2-(9-(4-((5-chloro-4-((2-(N-methylmethylsulfonamido)phenyl)amino)pyrimidin-2-yl)amino)-3-methoxyphenyl)-3,9-diazaspiro[5.5]undecan-3-yl)-N-(2-(2,6-dioxopiperidin-3-yl)-1-oxoisoindolin-4-yl)acetamide] | + (Protein degradation 20~80%) | − (Protein degradation < 20%)
COc1cc(N2CCC(N3CCN(CCOc4cccc5c4C(=O)N(C4CCC(=O)NC4=O)C5=O)CC3)CC2)ccc1Nc1ncc(Cl)c(Nc2ccccc2N(C)S(C)(=O)=O)n1 (stereo not shown) [Compound 52, N-(2-((5-chloro-2-((4-(4-(4-(2-((2-(2,6-dioxopiperidin-3-yl)-1,3-dioxoisoindolin-4-yl)oxy)ethyl)piperazin-1-yl)piperidin-1-yl)-2-methoxyphenyl)amino)pyrimidin-4-yl)amino)phenyl)-N-methylmethanesulfonamide] | + (Protein degradation 20~80%) | − (Protein degradation < 20%)
COc1cc(N2CCN(CC3CCN(CCOc4cccc5c4C(=O)N(C4CCC(=O)NC4=O)C5=O)CC3)CC2)ccc1Nc1ncc(Cl)c(Nc2ccccc2N(C)S(C)(=O)=O)n1 (stereo not shown) [Compound 57, N-(2-((5-chloro-2-((4-(4-((1-(2-((2-(2,6-dioxopiperidin-3-yl)-1,3-dioxoisoindolin-4-yl)oxy)ethyl)piperidin-4-yl)methyl)piperazin-1-yl)-2-methoxyphenyl)amino)pyrimidin-4-yl)amino)phenyl)-N-methylmethanesulfonamide] | − (Protein degradation < 20%) | − (Protein degradation < 20%)
COc1cc(N2CCC(N3CCN(CCNc4ccc5c(c4)C(=O)N(C4CCC(=O)NC4=O)C5=O)CC3)CC2)ccc1Nc1ncc(Cl)c(Nc2ccccc2N(C)S(C)(=O)=O)n1 (stereo not shown) [Compound 58, N-(2-((5-chloro-2-((4-(4-(4-(2-((2-(2,6-dioxopiperidin-3-yl)-1,3-dioxoisoindolin-5-yl)amino)ethyl)piperazin-1-yl)piperidin-1-yl)-2-methoxyphenyl)amino)pyrimidin-4-yl)amino)phenyl)-N-methylmethanesulfonamide] | − (Protein degradation < 20%) | + (Protein degradation 20~80%)
